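Growth conditions: 96-well plates. Treatment: test compound, 48 hours, 5 concentrations. Analysis: linear interpolation between bracketing concentrations; unreached endpoints set to highest concentration. GI50 marks 50% less growth.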 The source made the active and inactive calls. Cut-off read from the data, not from the text of the source: active = GI50 up to about 1.1 µM and inactive = higher.
Assays:
Assay in all cases: NCI-60 cell line screen, 48 h
OVCAR-3 = system: OVCAR-3
NCI-H226 = system: NCI-H226
SF-295 = system: SF-295
SK-MEL-2 = system: SK-MEL-2
OVCAR-4 = system: OVCAR-4
EKVX = system: EKVX
CAKI-1 = system: CAKI-1
SW-620 = system: SW-620
T47D = system: T47D
TK-10 = system: TK-10
HCT-15 = system: HCT-15
ACHN = system: ACHN
HCT-116 = system: HCT-116
A498 = system: A498
MDA-MB-435 = system: MDA-MB-435
SK-MEL-5 = system: SK-MEL-5
786-0 = system: 786-0
COLO 205 = system: COLO 205
OVCAR-5 = system: OVCAR-5
SF-539 = system: SF-539

Row | Compound | GI50 (OVCAR-3) | GI50 (NCI-H226) | GI50 (SF-295) | GI50 (SK-MEL-2) | GI50 (OVCAR-4) | GI50 (EKVX) | GI50 (CAKI-1) | GI50 (SW-620) | GI50 (T47D) | GI50 (TK-10) | GI50 (HCT-15) [µM] | GI50 (ACHN) | GI50 (HCT-116) | GI50 (A498) | GI50 (MDA-MB-435) | GI50 (SK-MEL-5) | GI50 (786-0) | GI50 (COLO 205) | GI50 (OVCAR-5) | GI50 (SF-539)
1 | COc1ccc2nc3ccc(OC)cc3c(SCCCl)c2c1 | 18.2 µM (inactive) | > 48.4 µM (inactive) | 26.2 µM (inactive) | 20.7 µM (inactive) | 12.7 µM (inactive) | > 49.9 µM (inactive) | 3.82 µM (inactive) | 12.6 µM (inactive) | 15.2 µM (inactive) | > 81.5 µM (inactive) | 12.7 | 13.9 µM (inactive) | 6.22 µM (inactive) | 31.1 µM (inactive) | 9.95 µM (inactive) | 8.87 µM (inactive) | 6.24 µM (inactive) | > 39.1 µM (inactive) | 24.8 µM (inactive) | 7.21 µM (inactive)
2 | COc1ccc(/C=N/Nc2nc3ccccc3c(=O)n2-c2ccccc2)cc1 | > 100 µM (inactive) | > 100 µM (inactive) | > 100 µM (inactive) | > 100 µM (inactive) | > 100 µM (inactive) | > 100 µM (inactive) | > 100 µM (inactive) | > 100 µM (inactive) | > 100 µM (inactive) | > 100 µM (inactive) | > 100 | > 100 µM (inactive) | > 100 µM (inactive) | > 100 µM (inactive) | > 100 µM (inactive) | > 100 µM (inactive) | > 100 µM (inactive) | > 100 µM (inactive) | > 100 µM (inactive) | > 100 µM (inactive)
3 | CCOC(=O)/C=C\C(C#N)(C#N)/N=C/c1ccsc1 | 2.54 µM (inactive) | 14.8 µM (inactive) | 29.3 µM (inactive) | 17.7 µM (inactive) | 6.43 µM (inactive) | 16.5 µM (inactive) | 2.25 µM (inactive) | 1.62 µM (inactive) | 2 µM (inactive) | 2.1 µM (inactive) | 2.96 | 2.91 µM (inactive) | 2.17 µM (inactive) | 19 µM (inactive) | 2.39 µM (inactive) | 20 µM (inactive) | 2.24 µM (inactive) | 1.9 µM (inactive) | 18.2 µM (inactive) | 6.55 µM (inactive)
4 | COC1=CC(=O)c2c(c(-c3nc(C)cs3)cn2C)C1=O | 1.75 µM (inactive) | 16.7 µM (inactive) | 2.88 µM (inactive) | 3.03 µM (inactive) | 18.5 µM (inactive) | 8.65 µM (inactive) | 5.97 µM (inactive) | 3.24 µM (inactive) | 20.1 µM (inactive) | 10.8 µM (inactive) | 1.28 | 4.73 µM (inactive) | 2.99 µM (inactive) | 5.82 µM (inactive) | 0.409 µM (active) | 1.2 µM (inactive) | 18.1 µM (inactive) | 12.4 µM (inactive) | 6.76 µM (inactive) | 2.2 µM (inactive)

— ChEMBL document CHEMBL1201862, “PubChem BioAssay data set” (2004)
